In general, pKd refers to the Kd on a negative log10 scale, so that one unit is a factor of ten.

pKd: −log10 of the molar value. Entries after “also recorded” stand apart in the source; their conditions may differ.

The target of one assay is BpIspF (Burkholderia pseudomallei, UniProt Q3JRA0). It counts as binding.
Assay [1] addresses B. pseudomallei IspF (BpIspF) (Burkholderia pseudomallei, UniProt Q3JRA0). The assay is described as follows: biochemical. It counts as binding. To be noted: for pKd: KD,app.
Assay [2] concerns the target T1, E. coli IspF (Escherichia coli, UniProt P62617).
T1 sequence (P62617 1-159): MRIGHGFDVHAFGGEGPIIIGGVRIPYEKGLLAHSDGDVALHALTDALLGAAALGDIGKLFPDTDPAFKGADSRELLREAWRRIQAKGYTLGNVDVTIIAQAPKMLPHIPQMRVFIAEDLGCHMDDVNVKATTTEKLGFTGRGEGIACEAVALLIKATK
As to conditions: cited from earlier work.

Assay [3] has as its target T1, E. coli IspF. It counts as binding. As to conditions: pH 7.4.
Assay [4] concerns the target T1, E. coli IspF. To be noted: cited from earlier work. The source holds these as a separate data set.

Sequence of B. pseudomallei IspF (BpIspF) (Q3JRA0 whole entry, looked up): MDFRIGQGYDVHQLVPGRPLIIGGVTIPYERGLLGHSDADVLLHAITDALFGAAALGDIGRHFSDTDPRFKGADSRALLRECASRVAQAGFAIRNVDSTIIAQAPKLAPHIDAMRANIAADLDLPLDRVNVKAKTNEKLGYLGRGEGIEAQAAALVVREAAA
Sequence of BpIspF (Q3JRA0 whole entry, looked up): as above

For the compound `CC(C)=CCC/C(C)=C/COP(=O)(O)OP(=O)(O)O` [geranyl diphosphate (GPP), geranyl diphosphate, reference compound], the “interaction with BpIspF by STD NMR (in words)” value at BpIspF was “did not show significant interaction”.
Regarding `N[C@@H](Cc1c[nH]c2ccccc12)C(=O)O` [L-tryptophan, reference compound], the pKd in assay [1] was < 3.00. In addition, the “binding (in words)” value in assay [1] (pH 7.4) is listed as “did not show appreciable binding”.
For `N[C@H](Cc1c[nH]c2ccccc12)C(=O)NO` [D-tryptophan hydroxamate], the “change in affinity relative to L-tryptophan hydroxamate (3)” value in assay [1] was “less than a twofold drop in affinity; also recorded: less than two-fold weaker”. Further, the “N (stoichiometry)” value in assay [1] (pH 7.4) came to 0.7.
`N[C@H](Cc1c[nH]c2ccccc12)C(=O)O` [D-tryptophan, reference compound]: in assay [1], the pKd was < 3.00. Moreover, the “binding (in words)” value in assay [1] (pH 7.4) is “undetectable binding; also recorded: did not show appreciable binding”.
In the case of `CC(C)=CCC/C(C)=C/CC/C(C)=C/CO[P@@](=O)(O)OP(=O)(O)O` (stereo in doubt) [farnesyl diphosphate (FPP), farnesyl diphosphate], the “direct feedback inhibition of E. coli IspF (in words)” value at E. coli IspF [2] is on record as “did not observe direct feedback inhibition”.
In the case of `N[C@@H](Cc1c[nH]c2ccccc12)C(=O)NO` [L-tryptophan hydroxamate (3), L-tryptophan hydroxamate], on BpIspF, the “Relative Percent Saturation Transfer, proton A” value came to 100%; the “Relative Percent Saturation Transfer, proton B” value was 60–65%; the “Relative Percent Saturation Transfer, proton C” value is 80–85%; the “Relative Percent Saturation Transfer, proton D” value is listed as 75–80%. At BpIspF, the “Relative Percent Saturation Transfer, proton E” value is reported as 80–85%; the “Relative Percent Saturation Transfer, proton F” value is reported as 25–30%; the “Relative Percent Saturation Transfer, proton G” value is on record as 50–55%. Also, the “binding at pH 6.0 compared to pH 7.4 (fold weaker)” value in assay [1] was “approximately 25 fold”. For the same compound, the “N (stoichiometry)” value in assay [1] (pH 7.4) was found to be 1.5 ± 0.2. Besides, the “N (stoichiometry)” value in assay [1] (pH 8) is listed as 1.4 ± 0.4. The “N (stoichiometry)” value on E. coli IspF [3] worked out at 1.2 ± 0.3. In addition, on E. coli IspF [4], the negative logarithm of the Kd (pKd) was ~5.70.
